Target: Estrogen Receptor (ERα) in MCF-7 cells (Homo sapiens (Human), UniProt P03372)
Sequence (P03372 whole entry): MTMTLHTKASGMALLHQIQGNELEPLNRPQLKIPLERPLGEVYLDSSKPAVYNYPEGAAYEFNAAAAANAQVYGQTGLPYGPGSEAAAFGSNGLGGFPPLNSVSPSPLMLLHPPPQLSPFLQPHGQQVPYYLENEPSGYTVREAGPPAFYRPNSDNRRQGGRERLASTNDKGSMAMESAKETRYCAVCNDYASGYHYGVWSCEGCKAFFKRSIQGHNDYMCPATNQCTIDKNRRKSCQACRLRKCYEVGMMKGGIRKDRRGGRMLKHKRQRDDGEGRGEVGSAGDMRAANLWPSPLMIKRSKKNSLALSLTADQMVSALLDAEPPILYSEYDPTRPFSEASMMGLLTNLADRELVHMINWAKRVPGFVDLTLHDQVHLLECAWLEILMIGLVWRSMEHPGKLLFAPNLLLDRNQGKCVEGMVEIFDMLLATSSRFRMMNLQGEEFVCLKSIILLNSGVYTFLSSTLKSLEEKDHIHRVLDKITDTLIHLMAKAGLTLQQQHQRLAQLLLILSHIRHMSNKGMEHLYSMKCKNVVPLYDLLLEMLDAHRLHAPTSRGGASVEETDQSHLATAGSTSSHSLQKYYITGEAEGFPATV
Assay: MCF-7 ER down-regulation assay (immuno-fluorescence)
Format: cell-based
Conditions: maximum downregulation in the assay
Method: The ability of compounds to down-regulate Estrogen Receptor (ER) numbers was assessed in a cell based immuno-fluorescence assay using the MCF-7 human ductal carcinoma breast cell line. MCF-7 cells were revived directly from a cryovial (approx 5×10^6 cells) in Assay Medium (phenol red free Dulbecco's Modified Eagle's medium (DMEM); Sigma D5921) containing 2 mM L-Glutamine and 5% (v/v) Charcoal/Dextran treated foetal calf serum. Cells were syringed once using a sterile 18G×1.5 inch (1.2×40 mm) broad gauge needle and cell density was measured using a Coulter Counter (Beckman). […] Following cell seeding, plates were incubated overnight at 37° C., 5% CO2 (Liconic carousel incubator). Test data was generated using the LabCyte Echomodel 555 compound reformatter which is part of an automated workcell (Integrated Echo 2 workcell). Compound stock solutions (10 mM) of the test compounds were used to generate a 384 well compound dosing plate (Labcyte P-05525-CV1). […] 40 μL of DMSO added to wells in row P on the source plate allowed for DMSO normalisation across the dose range. […]
The Echo uses acoustic technology to perform direct microplate-to-microplate transfers of DMSO compound solutions to assay plates. […] 20 μL of PBS was added to each well and the plates covered with a black plate seal and stored at 4° C. before being read. […]
For `COCc1ccc(OCCNCCCF)cc1[C@@H]1c2[nH]c3ccccc3c2C[C@@H](C)N1CC(F)(F)F` [Example 71, 3-fluoro-N-(2-(4-(methoxymethyl)-3-((1R,3R)-3-methyl-2-(2,2,2-trifluoroethyl)-2,3,4,9-tetrahydro-1H-pyrido[3,4-b]indol-1-yl)phenoxy)ethyl)propan-1-amine], the “% downregulation (in brackets)” value was 90%.

Test system: not listed separately
Assay: Human plasma protein binding (equilibrium dialysis)
Format: in vitro ADME
Conditions: dialysis 18 hours
Method: The automated equilibrium dialysis assay in human plasma uses the RED (Rapid Equilibrium Dialysis) Device and sample handling. The assay generally runs over two to three days including delivery of results. After dialysis for 18 hours, plasma and buffer samples are prepared for analysis by liquid chromatography and mass spectrometry. Samples are generally tested in singlicates and quantified by LC/MSMS by using a 7-point calibration curve in plasma. The compounds are pooled together in plasma pools up to 10 compounds. Three reference compounds are used in each run, Propranolol, Metoprolol and Warfarin. Warfarin is used as a control in each pool and Propranolol and Metoprolol are placed randomly in each run. An in-house Excel macro is used for preparation of files for the robot and the mass spectrometer and is also used for the calculations of fraction unbound (fu %) in plasma.
For `COCc1ccc(OCCNCCCF)cc1[C@@H]1c2[nH]c3ccccc3c2C[C@@H](C)N1CC(F)(F)F` [Example 71, 3-fluoro-N-(2-(4-(methoxymethyl)-3-((1R,3R)-3-methyl-2-(2,2,2-trifluoroethyl)-2,3,4,9-tetrahydro-1H-pyrido[3,4-b]indol-1-yl)phenoxy)ethyl)propan-1-amine], the “Human plasma protein binding (% free)” value was 0.44 % free.
For `C[C@@H]1Cc2c([nH]c3ccccc23)[C@@H](c2cccc(OCCNCCCF)c2Cl)N1CC(F)(F)F` [Example 25, N-(2-(2-chloro-3-((1R,3R)-3-methyl-2-(2,2,2-trifluoroethyl)-2,3,4,9-tetrahydro-1H-pyrido[3,4-b]indol-1-yl)phenoxy)ethyl)-3-fluoropropan-1-amine], the “Human plasma protein binding (% free)” value was 0.080 % free.
With `COc1ccc(OC[C@@H](C)NCCCF)cc1[C@@H]1c2[nH]c3ccccc3c2C[C@@H](C)N1CC(F)(F)CO` [Example 50, 2,2-difluoro-3-((1R,3R)-1-(5-((R)-2-((3-fluoropropyl)amino)propoxy)-2-methoxyphenyl)-3-methyl-1,3,4,9-tetrahydro-2H-pyrido[3,4-b]indol-2-yl)propan-1-ol] the “Human plasma protein binding (% free)” value was 7.1 % free.
For `Cc1c(N(C)CCNCCCF)ccc(F)c1[C@@H]1c2[nH]c3ccccc3c2C[C@@H](C)N1C[C@H](C)C(=O)O` [Example 136, (S)-3-((1R,3R)-1-(6-fluoro-3-((2-((3-fluoropropyl)amino)ethyl)(methyl)amino)-2-methylphenyl)-3-methyl-1,3,4,9-tetrahydro-2H-pyrido[3,4-b]indol-2-yl)-2-methylpropanoic acid], the “Human plasma protein binding (% free)” value was 2.1 % free.
For `COc1ccc(O[C@H](C)CNCCCF)cc1[C@@H]1c2[nH]c3ccccc3c2C[C@@H](C)N1CC(F)(F)CO` [Example 47, 2,2-difluoro-3-((1R,3R)-1-(5-(((R)-1-((3-fluoropropyl)amino)propan-2-yl)oxy)-2-methoxyphenyl)-3-methyl-1,3,4,9-tetrahydro-2H-pyrido[3,4-b]indol-2-yl)propan-1-ol], the “Human plasma protein binding (% free)” value was 6.1 % free.
For `C[C@@H]1Cc2c([nH]c3ccccc23)[C@@H](c2c(Cl)ccc(OCCNCCCF)c2Cl)N1C[C@H](C)C(=O)O` [Example 128, (S)-3-((1R,3R)-1-(2,6-dichloro-3-(2-((3-fluoropropyl)amino)ethoxy)phenyl)-3-methyl-1,3,4,9-tetrahydro-2H-pyrido[3,4-b]indol-2-yl)-2-methylpropanoic acid], the “Human plasma protein binding (% free)” value was 15 % free.
In the case of `CC(CN1[C@H](c2c(Cl)ccc(OCCNCCCF)c2Cl)c2[nH]c3ccc(F)cc3c2C[C@H]1C)C(=O)O` (single isomer, unassigned) [Example 130], the “Human plasma protein binding (% free)” value was 7.8 % free.
With `COc1ccc(OCCNCCCF)cc1[C@@H]1c2[nH]c3ccccc3c2C[C@@H](C)N1C[C@H](C)C(=O)O` [Example 53, (S)-3-((1R,3R)-1-(5-(2-((3-fluoropropyl)amino)ethoxy)-2-methoxyphenyl)-3-methyl-1,3,4,9-tetrahydro-2H-pyrido[3,4-b]indol-2-yl)-2-methylpropanoic acid] the “Human plasma protein binding (% free)” value was 80 % free.
For `C[C@@H]1Cc2c([nH]c3ccccc23)[C@@H](c2c(F)ccc(NCCNCCCF)c2F)N1CC(F)(F)F` [Example 88, N1-(2,4-difluoro-3-((1R,3R)-3-methyl-2-(2,2,2-trifluoroethyl)-2,3,4,9-tetrahydro-1H-pyrido[3,4-b]indol-1-yl)phenyl)-N2-(3-fluoropropyl)ethane-1,2-diamine], the “Human plasma protein binding (% free)” value was 0.58 % free.
In the case of `C[C@@H]1Cc2c([nH]c3ccccc23)[C@@H](c2c(Cl)ccc(OCCNCCCF)c2F)N1CC(F)(F)F` [Example 78, N-(2-(4-chloro-2-fluoro-3-((1R,3R)-3-methyl-2-(2,2,2-trifluoroethyl)-2,3,4,9-tetrahydro-1H-pyrido[3,4-b]indol-1-yl)phenoxy)ethyl)-3-fluoropropan-1-amine], the “Human plasma protein binding (% free)” value was 0.21 % free.
For `C[C@@H]1Cc2c([nH]c3ccccc23)[C@@H](c2c(F)cnc(OCCNCCCF)c2F)N1CC(F)(F)F` [Example 107, N-(2-((3,5-difluoro-4-((1R,3R)-3-methyl-2-(2,2,2-trifluoroethyl)-2,3,4,9-tetrahydro-1H-pyrido[3,4-b]indol-1-yl)pyridin-2-yl)oxy)ethyl)-3-fluoropropan-1-amine], the “Human plasma protein binding (% free)” value was 1 % free.
For `Cc1ccc(OCCNCCCF)c(C)c1[C@@H]1c2[nH]c3ccccc3c2C[C@@H](C)N1CC(F)(F)F` [Example 79, N-(2-(2,4-dimethyl-3-((1R,3R)-3-methyl-2-(2,2,2-trifluoroethyl)-2,3,4,9-tetrahydro-1H-pyrido[3,4-b]indol-1-yl)phenoxy)ethyl)-3-fluoropropan-1-amine], the “Human plasma protein binding (% free)” value was less than 0.4 % free.
In the case of `C[C@@H]1Cc2c([nH]c3ccccc23)[C@@H](c2c(F)ccc(OCCNCCCF)c2Cl)N1CC(F)(F)CO` [Example 85, 3-((1R,3R)-1-(2-chloro-6-fluoro-3-(2-((3-fluoropropyl)amino)ethoxy)phenyl)-3-methyl-1,3,4,9-tetrahydro-2H-pyrido[3,4-b]indol-2-yl)-2,2-difluoropropan-1-ol], the “Human plasma protein binding (% free)” value was 1.0 % free.
For `Cc1c(OCCN(C)CCCF)ncc(F)c1[C@@H]1c2[nH]c3ccccc3c2C[C@@H](C)N1C(C)CC(=O)O` (single isomer, unassigned) [Example 158], the “Human plasma protein binding (% free)” value was 21 % free.
With `C[C@@H]1Cc2c([nH]c3ccc(F)cc23)[C@@H](c2c(F)ccc(NCCNCCCF)c2F)N1CC(F)(F)CO` [Example 89, 3-((1R,3R)-1-(2,6-difluoro-3-((2-((3-fluoropropyl)amino)ethyl)amino)phenyl)-6-fluoro-3-methyl-1,3,4,9-tetrahydro-2H-pyrido[3,4-b]indol-2-yl)-2,2-difluoropropan-1-ol] the “Human plasma protein binding (% free)” value was less than 3.4 % free.
For `COc1ccc(OCCNCCCF)c(F)c1[C@@H]1c2[nH]c3ccccc3c2C[C@@H](C)N1CC(F)(F)CO` [Example 81, 2,2-difluoro-3-((1R,3R)-1-(2-fluoro-3-(2-((3-fluoropropyl)amino)ethoxy)-6-methoxyphenyl)-3-methyl-1,3,4,9-tetrahydro-2H-pyrido[3,4-b]indol-2-yl)propan-1-ol], the “Human plasma protein binding (% free)” value was 2.9 % free.
With `Cc1c(OCCNCCCF)ccc(F)c1[C@@H]1c2[nH]c3ccccc3c2CC(C)(C)N1C[C@H](C)C(=O)O` [Example 134, (S)-3-((R)-1-(6-fluoro-3-(2-((3-fluoropropyl)amino)ethoxy)-2-methylphenyl)-3,3-dimethyl-1,3,4,9-tetrahydro-2H-pyrido[3,4-b]indol-2-yl)-2-methylpropanoic acid] the “Human plasma protein binding (% free)” value was 36 % free.
In the case of `CC(CN1[C@H](c2c(Cl)ccc(OCCNCCCF)c2Cl)c2[nH]c3ccc(F)cc3c2C[C@H]1C)C(=O)O` (single isomer, unassigned) [Example 129], the “Human plasma protein binding (% free)” value was 23 % free.
In the case of `Cc1c([C@@H]2c3[nH]c4ccccc4c3C[C@@H](C)N2CC(F)(F)CO)ccnc1OCCNCCCF` [Example 103, 2,2-difluoro-3-((1R,3R)-1-(2-(2-((3-fluoropropyl)amino)ethoxy)-3-methylpyridin-4-yl)-3-methyl-1,3,4,9-tetrahydro-2H-pyrido[3,4-b]indol-2-yl)propan-1-ol], the “Human plasma protein binding (% free)” value was 2 % free.
In the case of `C[C@@H]1Cc2c([nH]c3ccccc23)[C@@H](c2c(F)ccc(OCCNCCCF)c2F)N1CC1(F)COC1` [Example 13, N-(2-(2,4-difluoro-3-((1R,3R)-2-((3-fluorooxetan-3-yl)methyl)-3-methyl-2,3,4,9-tetrahydro-1H-pyrido[3,4-b]indol-1-yl)phenoxy)ethyl)-3-fluoropropan-1-amine], the “Human plasma protein binding (% free)” value was 3.5 % free.
In the case of `COc1ccc(NCCNCCCF)nc1[C@@H]1c2[nH]c3ccccc3c2C[C@@H](C)N1CC(F)(F)F` [Example 43, N1-(3-fluoropropyl)-N2-(5-methoxy-6-((1S,3R)-3-methyl-2-(2,2,2-trifluoroethyl)-2,3,4,9-tetrahydro-1H-pyrido[3,4-b]indol-1-yl)pyridin-2-yl)ethane-1,2-diamine], the “Human plasma protein binding (% free)” value was 2.8 % free.
